Reference: patent publication US20190226949A1, “IRIDIUM COMPLEXES FOR CELLULAR IMAGING” (UNIVERSITY OF SOUTH AUSTRALIA, priority 2016, published 2019)
Several values for one entry are separate records, joined by “and”; a condition that tells them apart may be missing. Equal values may be shown once.

What was measured:
[1] = Lipophilicity by shake-flask method (7.4-buffered PBS / n-octanol); format: physicochemical; conditions: pH 7.4; 7.4-buffered PBS solution and n-octanol; read-out: logD7.4, distribution coefficient
Experimental: The lipophilicity of the iridium complexes was measured by the shake-flask method using 7.4-buffered PBS and n-octanol as solvents (Table 2). The values range between 1.49 and 2.68 are typical for cyclometalated iridium complexes that have not been bioconjugated. […] In general, neutral complexes have log D7.4 values above 2.00 and there is an increased in lipophilicity of extending the tetrazolato ligand with the addition of a phenyl spacer in [Ir(ppy)2(TzPyPhCN)], or by extending the conjugation on passing from pyridine to quinoline or isoquinoline for [Ir(ppy)2(TzQn)] and [Ir(ppy)2(TziQn)]. Methylation in all cases reduces lipophilicity to log D7.4 values […], with the same trend within the family of methylated complexes as previously observed for the neutral ones.

[2] = Photophysical measurements (absorption, emission, lifetime, quantum yield) in diluted solutions; format: physicochemical; conditions: for Emission λem / τaer, excited state lifetime (relative weight in parentheses) / τdeaer, excited state lifetime (relative weight in parentheses): 298K; for Φaer, quantum yield / Φdeaer, quantum yield: versus Ru(bpy)3^2+ in water (φr = 0.028); for τdeaer, excited state lifetime (relative weight in parentheses) / Φdeaer, quantum yield: deaerated; for knr: calculated as [(1 − φ)/τ] from deaerated solutions; for kr: calculated as [φ/τ] from deaerated solutions; for Φ, quantum yield: versus Ru(bpy)3^2+ in water; for red-shift of emission from ethyl laurate to dichloromethane: ethyl laurate vs dichloromethane
From the text: A summary of the photophysical data for the complexes as diluted solutions (10^−5 M) in dichloromethane, water, PBS, lysosomal fluid solution, and ethyl laurate is reported in Table 1. All the listed aqueous media also contain 0.1% DMSO to favour the solubilisation of the complexes. The various solvents have been chosen to identify potential modulations on the photophysical behaviour of the iridium complexes in diverse cellular environments such as cytoplasm, endosome/lysosomes acidic organelles, or lipid-rich compartments like membranes, endoplasmic reticulum, and lipid droplets. In general, the photophysical characteristics were measured in aerated solutions to take into account the presence of oxygen in live cells. On the other hand, dichloromethane solutions were compared as aerated and degassed to confirm oxygen sensitivity and triplet character of the excited states of the complexes.
Absorption spectra were recorded at room temperature using a Cary 4000 UV/Vis spectrometer. Uncorrected steady state emission and excitation spectra were recorded on an Edinburgh FLSP980-S2S2-stm spectrometer equipped with: i) a temperature-monitored cuvette holder; ii) 450 W Xenon arc lamp; iii) double excitation and emission monochromators; iv) a Peltier cooled Hamamatsu R928P photomultiplier tube (spectral range 200-870 nm). Emission and excitation spectra were corrected for source intensity (lamp and grating) and emission spectral response (detector and grating) by a calibration curve supplied with the instrument. According to the approach described by Demas and Crosby, luminescence quantum yields (Φem) were measured in optically dilute solutions (O.D.<0.1 at excitation wavelength) obtained from absorption spectra on a wavelength scale [nm] and compared to the reference emitter by the following equation: […]
where A is the absorbance at the excitation wavelength (λ), I is the intensity of the excitation light at the excitation wavelength (λ), n is the refractive index of the solvent, D is the integrated intensity of the luminescence and Φ is the quantum yield. The subscripts r and x refer to the reference and the sample, respectively. The quantum yield determinations were performed at identical excitation wavelength for the sample and the reference, therefore cancelling the I(λr)/I(λx) term in the equation. The quantum yields of complexes were measured against Rubipy in water (Φr=0.028). Emission lifetimes (z) were determined with the time correlated single photon counting technique (TCSPC) with the same Edinburgh FLSP980-S2S2-stm spectrometer using either a pulsed picosecond LED (EPLED/EPL 377 nm, FHWM<800 ps) or a microsecond flashlamp. The goodness of fit was assessed by minimising the reduced χ^2 function and by visual inspection of the weighted residuals. The solvents used for the preparation of the solutions for the photophysical investigations were of LR grade and the water was deionised. Degassing of the dichlorometane solutions was performed using the freeze-pump-thaw method. Experimental uncertainties are estimated to be ±8% for lifetime determinations, ±20% for quantum yields, ±2 nm and ±5 nm for absorption and emission peaks, respectively.

[3] = tested on: H9c2 rat cardiomyoblast cells; assay: Staining and co-staining of live H9c2 cells, confocal and two-photon microscopy; format: cell-based; conditions: for cellular localisation (co-staining): live H9c2, 20 μM, 30 minutes; for emission profile from cells: live H9c2, one-photon or two-photon excitation
Experimental: Live H9c2 rat cardiomyoblasts were incubated with the iridium complexes for 30 minutes. Complexes were made to a final concentration of 20 μM in the cell culture medium with DMSO concentration <0.2%. Under these conditions, the luminescence from the iridium complexes within the cells was detected via confocal microscopy under single-photon excitation (403 nm) or two-photon excitation (810-840 nm).
To determine the localisation of the iridium complexes, co-staining experiments were carried out with the use of ER-Tracker™ Red (endoplasmic reticulum), LysoTracker® Red DND-99 (acidic compartments), MitoTracker® Red (mitochondria), BODIPY® 500/510 C1, C12(fatty acid) or β-BODIPY® FL HPC (phospholipids). […] This difference was also in agreement with the trend of the quantum yield data illustrated before and detection of internalised complex by ICP-MS.
H9c2 rat cardiomyoblast cell line was a kind gift from Professor Janna Morrison (University of South Australia). The H9c2 cells were maintained in high-glucose (4500 mg/L) DMEM medium (Sigma-Aldrich, USA) containing 10% fetal bovine serum (FBS; In Vitro Technologies, USA) and 2 mM L-glutamine (Sigma-Aldrich, USA) at 37° C. and 5% CO2. The H9c2 cells were cultured in […] flasks, and cells (1×10^6 cells/mL) that had been passaged, from two up to five times were used for experiments. For live cell imaging and MTS assay, the H9c2 cells (1×10^5 cells/mL) were cultured overnight in either ibidi μ-Slide 8 wells in a final volume of 250 μL or 96-well microtiter plate in a final volume of 200 μL in absence of Ir-based molecular probes.
The H9c2 cells were incubated with 20 μM of Ir-based molecular probes for 30 minutes in FBS-free media (300 μL) at 37° C. and 5% CO2. These cells were washed twice with phosphate buffered saline (PBS) and once with FBS-free media, and then co-stained with either ER-Tracker™ Red (BODIPY® TR Glibenclamide), LysoTracker® Red DND-99, MitoTracker® Red CMXRos (1H,5H,11H,15H-Xantheno[2,3,4-ij:5,6,7-i′j′]diquinolizin-18-ium, 9-[4-(chloromethyl)phenyl]-2,3,6,7,12,13,16,17-octahydro-, chloride), β-BODIPY® FL C5-HPC (2-(4,4-Difluoro-5,7-Dimethyl-4-Bora-3a,4a-Diaza-s-Indacene-3-Pentanoyl)-1-Hexadecanoyl-sn-Glycero-3-Phosphocholine) or BODIPY® 500/510 C1, C12 (4,4-Difluoro-5-Methyl-4-Bora-3a,4a-Diaza-s-Indacene-3-Dodecanoic Acid), which were obtained from Life Technologies Australia Pty Ltd, Australia. Cell biology analysis was carried out with a minimum of two experimental groups. Imaging analysis was performed using a Nikon A1+ confocal microscope equipped with 403 nm, 488 nm, 561 nm and 640 nm solid-state lasers (Nikon, Japan) and OKOLab Microscope Incubator (Okolab USA Inc., USA). The final preparation of the images was conducted with Adobe Photoshop CC (Adobe Systems Inc., USA).
The H9c2 cells were incubated with 20 μM of Ir-based molecular probes for 30 minutes in FBS-free media (300 μL) at 37° C. and 5% CO2. These cells then were washed with phosphate buffered saline (PBS) and imaged using Zeiss LSM710 META NLO inverted microscope supplemented with a two-photon Mai-Tai®, tunable Ti:Sapphire femtosecond pulse laser (710-920 nm, Spectra-Physics). Fluorescence of Ir-based molecular probes was detected using the following settings: two-photon excitation wavelength 830 nm, beam splitter MBS 690+, emission interval 520-650 nm. The H9c2 cells were exposed to two-photon illumination between 810-840 nm. A continuum of lambda stack images was captured across the emission spectrum 416-728 nm. The images were acquired using a Plan-APOCHROMAT 63X/NA1.4 oil immersion objective. The final preparation of the images was conducted with Adobe Photoshop CC (Adobe Systems Inc., USA).

| Compound | logD [1] | Absorption λabs [nm] (10^4ε [M^−1cm^−1]) ([2]; DCM, 10^−5 M) | Emission λem ([2]; DCM, 10^−5 M) | τaer, excited state lifetime (relative weight in parentheses) ([2]; DCM, aerated) | Φaer, quantum yield ([2]; DCM, aerated) | τdeaer, excited state lifetime (relative weight in parentheses) ([2]; DCM) | Φdeaer, quantum yield ([2]; DCM) | knr ([2]; DCM) | kr ([2]; DCM) | Emission λem ([2]; H2O with 0.1% DMSO, aerated) | Φ, quantum yield ([2]; H2O with 0.1% DMSO, aerated) | red-shift of emission on passing from a PBS to a lysosomal fluid solution ([2]; PBS vs lysosomal fluid solution) | red-shift of emission from ethyl laurate to dichloromethane [2] | cellular localisation (co-staining) [3] | emission profile from cells [3] | Absorption λabs [nm] (10^4ε [M^−1cm^−1]) ([2]; H2O with 0.1% DMSO, 10^−5 M) |
| --- | --- | --- | --- | --- | --- | --- | --- | --- | --- | --- | --- | --- | --- | --- | --- | --- |
| C[n+]1nc2[n](n1)[Ir]13([c]4ccccc4-c4cccc[n+]41)([c]1ccccc1-c1cccc[n+]13)[n+]1cc(-c3ccc(C#N)cc3)ccc1-2 [[Ir(ppy)2(MeTzPyPhCN)]^+] | 1.87 ± 0.08 | 267 (3.39) nm (10^4ε [M^−1cm^−1]) and 290 (3.14) nm (10^4ε [M^−1cm^−1]) and 378 (0.40) nm (10^4ε [M^−1cm^−1]) | 600 nm | 184 ns | 0.057 | 434 ns | 0.093 | 2.090 10^6s^−1 | 2.143 10^5s^−1 | 605 nm | 0.005 | 22 nm | almost no shift is observed | staining pattern consistent with mitochondrial localisation | blue-shifted and almost superimposable bands between these cationic complexes and their neutral analogues | – |
| C[n+]1nc2[n](n1)[Ir]13([c]4ccccc4-c4cccc[n+]41)([c]1ccccc1-c1cccc[n+]13)[n+]1c-2ccc2ccccc21 [[Ir(ppy)2(MeTzQn)]^+] | 1.68 ± 0.05 | – | 635 nm | 218 ns | 0.028 | 546 ns | 0.043 | 1.753 10^6s^−1 | 0.788 10^5s^−1 | 630 nm | 0.004 | – | – | preferential localisation in the endoplasmic reticulum and fatty acids and phospholipids | blue-shifted and almost superimposable bands between these cationic complexes and their neutral analogues | 251 (8.30) nm (10^4ε [M^−1cm^−1]) and 307 (2.52) nm (10^4ε [M^−1cm^−1]) and 364 (1.09) nm (10^4ε [M^−1cm^−1]) |
| C[n+]1nc2[n](n1)[Ir]13([c]4ccccc4-c4cccc[n+]41)([c]1ccccc1-c1cccc[n+]13)[n+]1ccc3ccccc3c1-2 [[Ir(ppy)2(MeTziQn)]^+] | 1.49 ± 0.06 | 253 (6.96) nm (10^4ε [M^−1cm^−1]) and 303 (2.45) nm (10^4ε [M^−1cm^−1]) and 371 (1.24) nm (10^4ε [M^−1cm^−1]) | 640 nm | 208 ns | 0.049 | 485 ns | 0.063 | 1.932 10^6s^−1 | 1.299 10^5s^−1 | 660 nm | 0.004 | – | almost no shift is observed | preferential localisation in the endoplasmic reticulum and fatty acids and phospholipids | red-shifted consistently with the photophysical data | 251 (6.64) nm (10^4ε [M^−1cm^−1]) and 291 (2.60) nm (10^4ε [M^−1cm^−1]) and 355 (1.36) nm (10^4ε [M^−1cm^−1]) |
